Reference: PubChem BioAssay AID2060499 (Molecular Pharmacology Branch, DTP, NCI, 2025)

Test system: 777334-354-R2-J4-PDC tumor spheroids with HUVEC/MSC, viability
Test: Anticancer human tumor 777334-354-R2-J4-PDC patient-derived pancreatic adenocarcinoma cell line growth inhibition [GQUAD]
Conditions: for IC50: curve of first compound; for viability, T/C: stronger effect = lower value
Procedure, shortened: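 Tumor cells were grown as complex spheroids with HUVEC endothelial cells and mesenchymal stem cells as stroma. G-quadruplex stabilizers were combined with targeted agents over half-log dilutions from near the clinical Cmax, or from 10 microM.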

[1] = second compound 0.0316 µM, first compound 0.0316 µM
[2] = second compound 0.0316 µM, first compound 0.1 µM
[3] = second compound 0.0316 µM, first compound 0.316 µM
[4] = second compound 0.0316 µM, first compound 1 µM
[5] = second compound 0.0316 µM, first compound 3.16 µM
[6] = second compound 0.0316 µM, first compound 10 µM
[7] = second compound 0.1 µM, first compound 0.0316 µM
[8] = second compound 0.1 µM, first compound 0.1 µM
[9] = second compound 0.1 µM, first compound 0.316 µM
[10] = second compound 0.1 µM, first compound 1 µM
[11] = second compound 0.1 µM, first compound 3.16 µM
[12] = second compound 0.1 µM, first compound 10 µM
[13] = second compound 0.316 µM, first compound 0.0316 µM
[14] = second compound 0.316 µM, first compound 0.1 µM
[15] = second compound 0.316 µM, first compound 0.316 µM
[16] = second compound 0.316 µM, first compound 1 µM
[17] = second compound 0.316 µM, first compound 3.16 µM
[18] = second compound 0.316 µM, first compound 10 µM
[19] = second compound 1 µM, first compound 0.0316 µM
[20] = second compound 1 µM, first compound 0.1 µM
[21] = second compound 1 µM, first compound 0.316 µM
[22] = second compound 1 µM, first compound 1 µM
[23] = second compound 1 µM, first compound 3.16 µM
[24] = second compound 1 µM, first compound 10 µM
[25] = second compound 3.16 µM, first compound 0.0316 µM
[26] = second compound 3.16 µM, first compound 0.1 µM
[27] = second compound 3.16 µM, first compound 0.316 µM
[28] = second compound 3.16 µM, first compound 1 µM
[29] = second compound 3.16 µM, first compound 3.16 µM
[30] = second compound 3.16 µM, first compound 10 µM
[31] = second compound 10 µM, first compound 0.0316 µM
[32] = second compound 10 µM, first compound 0.1 µM
[33] = second compound 10 µM, first compound 0.316 µM
[34] = second compound 10 µM, first compound 1 µM
[35] = second compound 10 µM, first compound 3.16 µM
[36] = second compound 10 µM, first compound 10 µM
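Note: spheroids exposed to compounds for 7 days before readout.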

## CC(C)n1c(=O)n(C)c2cnc3cc(F)c(-c4ccc(OCCCN5CCCCC5)nc4)cc3c21 + Cc1[nH]c2ccc(F)cc2c1-c1nc2c3cccnc3c3ncccc3c2[nH]1
Second compound 0.0316 µM
  IC50: > 10 µM
Second compound 0.1 µM
  IC50: > 10 µM
Second compound 0.316 µM
  IC50: > 10 µM
Second compound 1 µM
  IC50: > 10 µM
Second compound 3.16 µM
  IC50: < 0.0316 µM
Second compound 10 µM
  IC50: < 0.0316 µM
[1]
  viability, T/C: 106%
[2]
  viability, T/C: 108%
[3]
  viability, T/C: 113%
[4]
  viability, T/C: 115%
[5]
  viability, T/C: 115%
[6]
  viability, T/C: 96%
[7]
  viability, T/C: 105%
[8]
  viability, T/C: 89.5%
[9]
  viability, T/C: 131%
[10]
  viability, T/C: 103%
[11]
  viability, T/C: 118%
[12]
  viability, T/C: 98%
[13]
  viability, T/C: 101%
[14]
  viability, T/C: 99.5%
[15]
  viability, T/C: 90.3%
[16]
  viability, T/C: 110%
[17]
  viability, T/C: 99.1%
[18]
  viability, T/C: 93.5%
[19]
  viability, T/C: 90.8%
[20]
  viability, T/C: 84.7%
[21]
  viability, T/C: 90.6%
[22]
  viability, T/C: 101%
[23]
  viability, T/C: 93.8%
[24]
  viability, T/C: 70.8%
[25]
  viability, T/C: 30.8%
[26]
  viability, T/C: 50.4%
[27]
  viability, T/C: 40%
[28]
  viability, T/C: 33.1%
[29]
  viability, T/C: 28.5%
[30]
  viability, T/C: 19.9%
[31]
  viability, T/C: 28.7%
[32]
  viability, T/C: 25.2%
[33]
  viability, T/C: 41.9%
[34]
  viability, T/C: 28.4%
[35]
  viability, T/C: 27.1%
[36]
  viability, T/C: 13.5%

## Cc1cccc(N(C)C(=O)C2C(O)CCN2c2nc(C)cc(C(F)(F)F)c2C#N)c1 (stereo not drawn) + Cc1[nH]c2ccc(F)cc2c1-c1nc2c3cccnc3c3ncccc3c2[nH]1
Second compound 0.0316 µM
  IC50: > 10 µM
Second compound 0.1 µM
  IC50: > 10 µM
Second compound 0.316 µM
  IC50: > 10 µM
Second compound 1 µM
  IC50: > 10 µM
Second compound 3.16 µM
  IC50: < 0.0316 µM
Second compound 10 µM
  IC50: < 0.0316 µM
[1]
  viability, T/C: 112%
[2]
  viability, T/C: 104%
[3]
  viability, T/C: 95.3%
[4]
  viability, T/C: 95.5%
[5]
  viability, T/C: 94.5%
[6]
  viability, T/C: 92.9%
[7]
  viability, T/C: 97.6%
[8]
  viability, T/C: 97%
[9]
  viability, T/C: 92.1%
[10]
  viability, T/C: 93.4%
[11]
  viability, T/C: 103%
[12]
  viability, T/C: 101%
[13]
  viability, T/C: 95.3%
[14]
  viability, T/C: 88.5%
[15]
  viability, T/C: 101%
[16]
  viability, T/C: 95.8%
[17]
  viability, T/C: 95.8%
[18]
  viability, T/C: 91.2%
[19]
  viability, T/C: 78.8%
[20]
  viability, T/C: 85.4%
[21]
  viability, T/C: 83.3%
[22]
  viability, T/C: 71%
[23]
  viability, T/C: 90.4%
[24]
  viability, T/C: 87.2%
[25]
  viability, T/C: 35.1%
[26]
  viability, T/C: 36.6%
[27]
  viability, T/C: 37.3%
[28]
  viability, T/C: 31.1%
[29]
  viability, T/C: 33.5%
[30]
  viability, T/C: 46%
[31]
  viability, T/C: 32.4%
[32]
  viability, T/C: 34.5%
[33]
  viability, T/C: 35.7%
[34]
  viability, T/C: 30.5%
[35]
  viability, T/C: 25.7%
[36]
  viability, T/C: 38.8%

## Cn1ncnc1[C@H]1c2n[nH]c(=O)c3cc(F)cc(c23)N[C@@H]1c1ccc(F)cc1 + Cc1[nH]c2ccc(F)cc2c1-c1nc2c3cccnc3c3ncccc3c2[nH]1
Second compound 0.0316 µM
  IC50: > 0.316 µM
Second compound 0.1 µM
  IC50: > 0.316 µM
Second compound 0.316 µM
  IC50: > 0.316 µM
Second compound 1 µM
  IC50: > 0.316 µM
Second compound 3.16 µM
  IC50: < 0.000999 µM
Second compound 10 µM
  IC50: < 0.000999 µM
Second compound 0.0316 µM, first compound 0.000999 µM
  viability, T/C: 105%
Second compound 0.0316 µM, first compound 0.00316 µM
  viability, T/C: 87.4%
Second compound 0.0316 µM, first compound 0.00999 µM
  viability, T/C: 92%
[1]
  viability, T/C: 95.9%
Second compound 0.0316 µM, first compound 0.0999 µM
  viability, T/C: 81.6%
[3]
  viability, T/C: 90.3%
Second compound 0.1 µM, first compound 0.000999 µM
  viability, T/C: 110%
Second compound 0.1 µM, first compound 0.00316 µM
  viability, T/C: 102%
Second compound 0.1 µM, first compound 0.00999 µM
  viability, T/C: 99.4%
[7]
  viability, T/C: 83.9%
Second compound 0.1 µM, first compound 0.0999 µM
  viability, T/C: 94.5%
[9]
  viability, T/C: 88.2%
Second compound 0.316 µM, first compound 0.000999 µM
  viability, T/C: 94.7%
Second compound 0.316 µM, first compound 0.00316 µM
  viability, T/C: 97.9%
Second compound 0.316 µM, first compound 0.00999 µM
  viability, T/C: 95.1%
[13]
  viability, T/C: 85.5%
Second compound 0.316 µM, first compound 0.0999 µM
  viability, T/C: 84%
[15]
  viability, T/C: 74.7%
Second compound 1 µM, first compound 0.000999 µM
  viability, T/C: 75.4%
Second compound 1 µM, first compound 0.00316 µM
  viability, T/C: 91.9%
Second compound 1 µM, first compound 0.00999 µM
  viability, T/C: 91.2%
[19]
  viability, T/C: 81.9%
Second compound 1 µM, first compound 0.0999 µM
  viability, T/C: 82.1%
[21]
  viability, T/C: 65.5%
Second compound 3.16 µM, first compound 0.000999 µM
  viability, T/C: 33.3%
Second compound 3.16 µM, first compound 0.00316 µM
  viability, T/C: 33.7%
Second compound 3.16 µM, first compound 0.00999 µM
  viability, T/C: 44.6%
[25]
  viability, T/C: 22.8%
Second compound 3.16 µM, first compound 0.0999 µM
  viability, T/C: 28.6%
[27]
  viability, T/C: 43.8%
Second compound 10 µM, first compound 0.000999 µM
  viability, T/C: 35.3%
Second compound 10 µM, first compound 0.00316 µM
  viability, T/C: 37.6%
Second compound 10 µM, first compound 0.00999 µM
  viability, T/C: 41.8%
[31]
  viability, T/C: 28.7%
Second compound 10 µM, first compound 0.0999 µM
  viability, T/C: 37.1%
[33]
  viability, T/C: 31.5%

## O=C(c1cc(Cc2n[nH]c(=O)c3ccccc23)ccc1F)N1CCN(C(=O)C2CC2)CC1 + Cc1[nH]c2ccc(F)cc2c1-c1nc2c3cccnc3c3ncccc3c2[nH]1
Second compound 0.0316 µM
  IC50: > 10 µM
Second compound 0.1 µM
  IC50: > 10 µM
Second compound 0.316 µM
  IC50: > 10 µM
Second compound 1 µM
  IC50: > 10 µM
Second compound 3.16 µM
  IC50: < 0.0316 µM
Second compound 10 µM
  IC50: < 0.0316 µM
[1]
  viability, T/C: 95.4%
[2]
  viability, T/C: 95.8%
[3]
  viability, T/C: 102%
[4]
  viability, T/C: 98.7%
[5]
  viability, T/C: 93.6%
[6]
  viability, T/C: 83.1%
[7]
  viability, T/C: 98.6%
[8]
  viability, T/C: 98.9%
[9]
  viability, T/C: 99.5%
[10]
  viability, T/C: 92.5%
[11]
  viability, T/C: 103%
[12]
  viability, T/C: 78.7%
[13]
  viability, T/C: 99.2%
[14]
  viability, T/C: 98.7%
[15]
  viability, T/C: 95.1%
[16]
  viability, T/C: 103%
[17]
  viability, T/C: 106%
[18]
  viability, T/C: 76%
[19]
  viability, T/C: 75.5%
[20]
  viability, T/C: 89.7%
[21]
  viability, T/C: 91.6%
[22]
  viability, T/C: 82.9%
[23]
  viability, T/C: 89.2%
[24]
  viability, T/C: 82.5%
[25]
  viability, T/C: 37.8%
[26]
  viability, T/C: 39.2%
[27]
  viability, T/C: 36.4%
[28]
  viability, T/C: 38.2%
[29]
  viability, T/C: 43%
[30]
  viability, T/C: 32.8%
[31]
  viability, T/C: 24.9%
[32]
  viability, T/C: 35.9%
[33]
  viability, T/C: 39%
[34]
  viability, T/C: 33.7%
[35]
  viability, T/C: 36.5%
[36]
  viability, T/C: 33%
